Laboratory results from patent EP4745135A1 (Gluetacs Therapeutics (Shanghai) Co., Ltd., priority 2023, dated 2025).

Key:
[1] = biological target: T1, IKZF3 (Homo sapiens, UniProt Q96SW2+Q9UKT9); assay: Western blot, degradation of substrate protein in hPBMCs; assay type: cell-based
T1 construct: effects of the compounds of the present disclosure on the expression of target proteins in cells; endogenous in cells; host or cells: human PBMCs (Milecell Biotechnologies)

[2] = biological target: T2, IKZF2 (Homo sapiens, UniProt Q96SW2+Q9UKS7); assay: as above; assay type: cell-based
T2 construct: effects of the compounds of the present disclosure on the expression of target proteins in cells; endogenous in cells; host or cells: human PBMCs (Milecell Biotechnologies)

[3] = biological target: T3, CK1α (Homo sapiens, UniProt P48729+Q96SW2); assay: as above; assay type: cell-based
T3 construct: effects of the compounds of the present disclosure on the expression of target proteins in cells; endogenous in cells; host or cells: human PBMCs (Milecell Biotechnologies)

[4] = biological target: T4, IKZF1 (Homo sapiens, UniProt Q13422+Q96SW2); assay: as above; assay type: cell-based
T4 construct: effects of the compounds of the present disclosure on the expression of target proteins in cells; endogenous in cells; host or cells: human PBMCs (Milecell Biotechnologies)

[5] = biological target: T5, WEE1 (Homo sapiens, UniProt P30291+Q96SW2); assay: as above; assay type: cell-based
T5 construct: effects of the compounds of the present disclosure on the expression of target proteins in cells; endogenous in cells; host or cells: human PBMCs (Milecell Biotechnologies)

[6] = biological target: T6, human Cereblon WT GST-tagged protein (Homo sapiens, UniProt Q96SW2); assay: CRBN-binding affinity, HTRF (CEREBLON BINDING kit); conditions: for inhibition at 0.5 µM: read-out: Inhibition Rate at 0.5 µM (%); for inhibition at 2 µM: read-out: Inhibition Rate at 2 µM (%)
T6 construct: purchased CISBIO 64BDCRBNPEH

[7] = tested on: GSPT1; assay: Western blot, degradation of substrate protein in hPBMCs; assay type: cell-based, Human
[8] = 24 hours treatment, compounds at 50 nM and 500 nM (concentration behind the class not stated)
[9] = Western blot, 24 hours of compound treatment, compounds tested at 50 nM and 500 nM (concentration for the table not stated)

T5 sequence (P30291 whole entry): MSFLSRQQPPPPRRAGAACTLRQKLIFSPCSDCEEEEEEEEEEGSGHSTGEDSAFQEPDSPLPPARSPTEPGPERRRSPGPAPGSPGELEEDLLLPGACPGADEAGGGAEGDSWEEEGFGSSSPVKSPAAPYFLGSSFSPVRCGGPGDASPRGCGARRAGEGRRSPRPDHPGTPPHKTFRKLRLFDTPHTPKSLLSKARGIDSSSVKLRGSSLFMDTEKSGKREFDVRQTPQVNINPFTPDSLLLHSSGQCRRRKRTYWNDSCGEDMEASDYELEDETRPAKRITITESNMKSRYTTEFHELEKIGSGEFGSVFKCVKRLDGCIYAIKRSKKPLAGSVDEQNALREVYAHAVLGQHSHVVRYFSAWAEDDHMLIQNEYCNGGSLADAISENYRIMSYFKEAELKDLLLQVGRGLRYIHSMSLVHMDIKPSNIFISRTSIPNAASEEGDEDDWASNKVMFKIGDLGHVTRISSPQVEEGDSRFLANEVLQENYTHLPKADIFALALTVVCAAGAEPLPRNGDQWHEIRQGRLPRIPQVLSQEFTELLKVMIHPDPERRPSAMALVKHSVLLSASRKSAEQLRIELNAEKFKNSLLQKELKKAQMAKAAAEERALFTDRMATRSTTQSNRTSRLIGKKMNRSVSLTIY
T5 sequence (Q96SW2 whole entry): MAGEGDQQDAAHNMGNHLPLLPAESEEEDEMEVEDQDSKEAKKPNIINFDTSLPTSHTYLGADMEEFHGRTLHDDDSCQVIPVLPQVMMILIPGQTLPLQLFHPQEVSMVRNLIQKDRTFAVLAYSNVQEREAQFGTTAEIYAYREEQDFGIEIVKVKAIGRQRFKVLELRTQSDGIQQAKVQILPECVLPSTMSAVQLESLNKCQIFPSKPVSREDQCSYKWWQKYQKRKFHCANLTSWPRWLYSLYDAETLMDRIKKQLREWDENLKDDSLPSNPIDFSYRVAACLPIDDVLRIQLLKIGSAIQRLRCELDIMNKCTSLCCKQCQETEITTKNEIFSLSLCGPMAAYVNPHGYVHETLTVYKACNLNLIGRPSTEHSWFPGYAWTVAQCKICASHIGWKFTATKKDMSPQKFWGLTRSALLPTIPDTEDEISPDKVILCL
T5 sequence (Q16531 whole entry partner): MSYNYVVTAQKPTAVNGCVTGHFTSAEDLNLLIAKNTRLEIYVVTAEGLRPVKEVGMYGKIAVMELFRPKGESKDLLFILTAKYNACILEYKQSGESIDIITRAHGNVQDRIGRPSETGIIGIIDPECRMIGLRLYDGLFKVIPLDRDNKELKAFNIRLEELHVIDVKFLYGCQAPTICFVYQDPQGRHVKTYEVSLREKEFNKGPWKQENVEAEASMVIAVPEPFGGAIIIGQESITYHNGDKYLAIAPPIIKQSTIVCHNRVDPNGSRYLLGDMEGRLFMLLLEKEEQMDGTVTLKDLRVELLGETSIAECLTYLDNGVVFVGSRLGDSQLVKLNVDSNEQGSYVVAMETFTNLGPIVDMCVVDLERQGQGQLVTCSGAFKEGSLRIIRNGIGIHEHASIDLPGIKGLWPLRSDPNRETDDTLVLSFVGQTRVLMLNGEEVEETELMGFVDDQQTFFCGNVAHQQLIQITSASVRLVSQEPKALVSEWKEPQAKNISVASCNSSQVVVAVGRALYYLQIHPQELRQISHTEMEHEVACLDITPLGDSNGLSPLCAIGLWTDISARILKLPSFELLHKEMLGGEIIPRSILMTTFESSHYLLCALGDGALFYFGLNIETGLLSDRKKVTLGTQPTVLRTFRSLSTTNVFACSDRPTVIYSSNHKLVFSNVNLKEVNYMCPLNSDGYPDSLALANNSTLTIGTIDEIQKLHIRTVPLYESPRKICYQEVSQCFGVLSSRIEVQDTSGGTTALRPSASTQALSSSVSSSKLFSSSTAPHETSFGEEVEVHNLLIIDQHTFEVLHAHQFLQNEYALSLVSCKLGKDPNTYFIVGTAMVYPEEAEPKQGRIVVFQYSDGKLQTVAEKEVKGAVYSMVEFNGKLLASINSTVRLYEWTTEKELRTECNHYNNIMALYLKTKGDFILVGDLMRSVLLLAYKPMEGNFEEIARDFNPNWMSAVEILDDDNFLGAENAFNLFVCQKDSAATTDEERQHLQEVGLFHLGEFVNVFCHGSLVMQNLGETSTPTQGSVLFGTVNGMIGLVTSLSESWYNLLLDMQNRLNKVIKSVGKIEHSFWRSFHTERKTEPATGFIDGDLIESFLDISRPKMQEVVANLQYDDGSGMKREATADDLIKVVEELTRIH
T1 sequence (Q9UKT9 whole entry): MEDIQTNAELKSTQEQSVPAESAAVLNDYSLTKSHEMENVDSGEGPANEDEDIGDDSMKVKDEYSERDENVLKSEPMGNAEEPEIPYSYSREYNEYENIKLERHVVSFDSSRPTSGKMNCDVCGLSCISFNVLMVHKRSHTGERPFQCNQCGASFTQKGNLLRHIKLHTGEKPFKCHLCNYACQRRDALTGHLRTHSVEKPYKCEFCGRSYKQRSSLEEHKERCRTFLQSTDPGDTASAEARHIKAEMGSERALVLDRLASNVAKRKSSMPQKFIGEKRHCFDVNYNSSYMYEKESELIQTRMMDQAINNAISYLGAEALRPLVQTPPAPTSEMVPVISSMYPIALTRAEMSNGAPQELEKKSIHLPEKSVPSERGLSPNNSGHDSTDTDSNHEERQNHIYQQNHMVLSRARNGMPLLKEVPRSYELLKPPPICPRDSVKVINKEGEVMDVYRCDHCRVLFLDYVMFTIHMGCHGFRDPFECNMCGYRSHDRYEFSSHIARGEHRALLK
T1 sequence (Q96SW2 whole entry): as the sequence (Q96SW2 whole entry) above
T1 sequence (Q16531 whole entry partner): as the sequence (Q16531 whole entry partner) above
T4 sequence (Q13422 whole entry): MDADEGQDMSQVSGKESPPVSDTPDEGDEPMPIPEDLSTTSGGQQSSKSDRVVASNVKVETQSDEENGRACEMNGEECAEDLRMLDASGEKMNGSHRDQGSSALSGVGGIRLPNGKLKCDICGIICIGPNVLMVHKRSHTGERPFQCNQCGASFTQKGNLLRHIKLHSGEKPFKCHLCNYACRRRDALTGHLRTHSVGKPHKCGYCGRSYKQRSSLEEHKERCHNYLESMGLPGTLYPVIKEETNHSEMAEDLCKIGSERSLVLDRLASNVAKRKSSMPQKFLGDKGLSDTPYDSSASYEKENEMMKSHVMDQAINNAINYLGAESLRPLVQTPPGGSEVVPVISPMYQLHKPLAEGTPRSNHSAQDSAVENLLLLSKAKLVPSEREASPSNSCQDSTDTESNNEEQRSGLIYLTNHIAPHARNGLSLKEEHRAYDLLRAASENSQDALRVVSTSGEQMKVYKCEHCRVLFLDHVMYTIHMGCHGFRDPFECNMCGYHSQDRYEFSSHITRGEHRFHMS
T4 sequence (Q96SW2 whole entry): as the sequence (Q96SW2 whole entry) above
T4 sequence (Q16531 whole entry partner): as the sequence (Q16531 whole entry partner) above
T6 sequence (Q96SW2 whole entry): as the sequence (Q96SW2 whole entry) above
T2 sequence (Q9UKS7 whole entry): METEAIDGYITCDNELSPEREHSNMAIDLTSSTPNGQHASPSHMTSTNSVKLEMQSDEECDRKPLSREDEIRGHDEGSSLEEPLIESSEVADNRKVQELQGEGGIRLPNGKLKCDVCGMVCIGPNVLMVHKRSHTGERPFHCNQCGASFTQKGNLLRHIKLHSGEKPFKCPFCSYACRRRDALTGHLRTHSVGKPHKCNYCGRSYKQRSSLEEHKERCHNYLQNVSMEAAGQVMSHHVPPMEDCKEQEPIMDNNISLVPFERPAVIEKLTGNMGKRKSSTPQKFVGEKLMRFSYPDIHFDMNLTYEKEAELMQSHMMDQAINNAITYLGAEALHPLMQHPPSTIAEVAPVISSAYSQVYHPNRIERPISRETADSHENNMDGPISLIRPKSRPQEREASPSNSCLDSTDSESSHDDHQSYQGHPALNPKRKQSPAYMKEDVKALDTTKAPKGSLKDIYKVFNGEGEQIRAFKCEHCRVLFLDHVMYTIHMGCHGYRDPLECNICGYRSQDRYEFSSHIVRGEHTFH
T2 sequence (Q96SW2 whole entry): as the sequence (Q96SW2 whole entry) above
T2 sequence (Q16531 whole entry partner): as the sequence (Q16531 whole entry partner) above
T3 sequence (P48729 whole entry): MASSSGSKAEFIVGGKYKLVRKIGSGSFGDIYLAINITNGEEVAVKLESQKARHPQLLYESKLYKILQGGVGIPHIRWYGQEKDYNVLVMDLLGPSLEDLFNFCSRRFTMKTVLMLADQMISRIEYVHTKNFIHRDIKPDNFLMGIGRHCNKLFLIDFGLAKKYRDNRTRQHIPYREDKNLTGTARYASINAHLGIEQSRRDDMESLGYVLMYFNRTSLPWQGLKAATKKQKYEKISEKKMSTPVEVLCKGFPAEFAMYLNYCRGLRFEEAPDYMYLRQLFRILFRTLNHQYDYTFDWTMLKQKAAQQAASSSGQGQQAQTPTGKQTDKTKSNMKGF
T3 sequence (Q96SW2 whole entry): as the sequence (Q96SW2 whole entry) above
T3 sequence (Q16531 whole entry partner): as the sequence (Q16531 whole entry partner) above

Structure (SMILES)	IKZF3 substrate protein remaining % [1, 8]	IKZF2 substrate protein remaining % [2, 8]	CK1α substrate protein remaining % [3, 8]	IKZF 1 substrate protein remaining % [4, 8]	Wee1 substrate protein remaining % [5, 8]	inhibition at 0.5 µM [6]	inhibition at 2 µM [6]	GSPT1 substrate protein remaining % [7, 8]	IKZF3 substrate protein remaining % [1, 9]	IKZF2 substrate protein remaining % [2, 9]	CK1α substrate protein remaining % [3, 9]	IKZF 1 substrate protein remaining % [4, 9]	Wee1 substrate protein remaining % [5, 9]	GSPT1 substrate protein remaining % [7, 9]
Cc1cc(C2=CCN(Cc3cccc4c3CN(C3CCC(=O)NC3=O)C4=S)CC2)cs1 (centres unmarked) [GT-08318, 3-(4-((4-(5-methylthiophen-3-yl)-3,6-dihydropyridin-1(2H)-yl)methyl)-1-thioxoisoindolin-2-yl)piperidine-2,6-dione]	A (0% ≤ substrate protein remaining % ≤ 80%)	B (80%< substrate protein remaining %≤ 100%)	B (80%< substrate protein remaining %≤ 100%)	B (80%< substrate protein remaining %≤ 100%)	A (0% ≤ substrate protein remaining % ≤ 80%)	40 to 53%	60 to 80%	B (80%< substrate protein remaining %≤ 100%)						
O=C1CCC(N2Cc3c(CN4CC=C(c5ccoc5)CC4)cccc3C2=S)C(=O)N1 (centres unmarked) [GT-08319, 3-(4-((4-(furan-3-yl)-3,6-dihydropyridin-1 (2H)-yl)methyl)-1-thioxoisoindolin-2-yl)piperidine-2,6-dione]	A (0% ≤ substrate protein remaining % ≤ 80%)	B (80%< substrate protein remaining %≤ 100%)	B (80%< substrate protein remaining %≤ 100%)	B (80%< substrate protein remaining %≤ 100%)	A (0% ≤ substrate protein remaining % ≤ 80%)	40 to 53%	80 to 100%	B (80%< substrate protein remaining %≤ 100%)						
O=C1CCC(N2Cc3c(CN4CCC(c5cccs5)CC4)cccc3C2=S)C(=O)N1 (centres unmarked) [GT-08320, 3-(4-((4-(thiophen-2-yl)piperidin-1-yl)methyl)-1-thioxoisoindolin-2-yl)piperidine-2,6-dione]	A (0% ≤ substrate protein remaining % ≤ 80%)	B (80%< substrate protein remaining %≤ 100%)	B (80%< substrate protein remaining %≤ 100%)	B (80%< substrate protein remaining %≤ 100%)	A (0% ≤ substrate protein remaining % ≤ 80%)	40 to 53%	60 to 80%	B (80%< substrate protein remaining %≤ 100%)						
O=C1CCC(N2Cc3c(CN4CCC(c5cccc(F)c5F)CC4)cccc3C2=S)C(=O)N1 (centres unmarked) [GT-08322, 3-(4-((4-(2,3-difluorophenyl)piperidin-1-yl)methyl)-1-thioxoisoindolin-2-yl)piperidine-2,6-dione]	B (80%< substrate protein remaining %≤ 100%)	A (0% ≤ substrate protein remaining % ≤ 80%)	A (0% ≤ substrate protein remaining % ≤ 80%)	B (80%< substrate protein remaining %≤ 100%)	A (0% ≤ substrate protein remaining % ≤ 80%)	30 to 40%	53 to 60%	A (0% ≤ substrate protein remaining % ≤ 80%)						
O=C1CCC(N2Cc3cc(CN4CCC(c5ccoc5)CC4)ccc3C2=S)C(=O)N1 (centres unmarked) [GT-08326, 3-(5-((4-(furan-3-yl)piperidin-1-yl)methyl)-1-thioxoisoindolin-2-yl)piperidine-2,6-dione]	B (80%< substrate protein remaining %≤ 100%)	A (0% ≤ substrate protein remaining % ≤ 80%)	A (0% ≤ substrate protein remaining % ≤ 80%)	B (80%< substrate protein remaining %≤ 100%)	B (80%< substrate protein remaining %≤ 100%)	40 to 53%	80 to 100%	A (0% ≤ substrate protein remaining % ≤ 80%)						
O=C1CCC(N2Cc3c(CN4CCc5sccc5C4)cccc3C2=S)C(=O)N1 (centres unmarked) [GT-08333, 3-(4-((6,7-dihydrothieno[3,2-c]pyridin-5(4H)-yl)methyl)-1-thioxoisoindolin-2-yl)piperidine-2,6-dione]	B (80%< substrate protein remaining %≤ 100%)	B (80%< substrate protein remaining %≤ 100%)	A (0% ≤ substrate protein remaining % ≤ 80%)	B (80%< substrate protein remaining %≤ 100%)	A (0% ≤ substrate protein remaining % ≤ 80%)	60 to 80%	80 to 100%	A (0% ≤ substrate protein remaining % ≤ 80%)						
O=C1CCC(N2Cc3c(CN4CCn5c(nnc5C(F)(F)F)C4)cccc3C2=S)C(=O)N1 (centres unmarked) [GT-08365, 3-(1-thioxo-4-((3-(trifluoromethyl)-5,6-dihydro-[1,2,4]triazolo[4,3-a]pyrazin-7(8H)-yl)methyl)isoindolin-2-yl)piperidine-2,6-dione]						40 to 53%	60 to 80%		B (80%< substrate protein remaining %≤ 100%)	B (80%< substrate protein remaining %≤ 100%)	B (80%< substrate protein remaining %≤ 100%)	B (80%< substrate protein remaining %≤ 100%)	B (80%< substrate protein remaining %≤ 100%)	A (0% ≤ substrate protein remaining % ≤ 80%)
O=C1CCC(N2Cc3c(CN4CCN(c5nsc6ccccc56)CC4)cccc3C2=S)C(=O)N1 (centres unmarked) [GT-08366, 3-(4-((4-(benzo[d]isothiazol-3-yl)piperazin-1-yl)methyl)-1-thioxoisoindolin-2-yl)piperidine-2,6-dione]						60 to 80%	80 to 100%		B (80%< substrate protein remaining %≤ 100%)	B (80%< substrate protein remaining %≤ 100%)	B (80%< substrate protein remaining %≤ 100%)	B (80%< substrate protein remaining %≤ 100%)	A (0% ≤ substrate protein remaining % ≤ 80%)	B (80%< substrate protein remaining %≤ 100%)
O=C1CCC(N2Cc3c(CN4CCC(c5ccnc(Cl)c5Cl)CC4)cccc3C2=S)C(=O)N1 (centres unmarked) [GT-08458, 3-(4-((4-(2,3-dichloropyridin-4-yl)piperidin-1-yl)methyl)-1-thioxoisoindolin-2-yl)piperidine-2,6-dione]						53 to 60%	80 to 100%		B (80%< substrate protein remaining %≤ 100%)	B (80%< substrate protein remaining %≤ 100%)	B (80%< substrate protein remaining %≤ 100%)	B (80%< substrate protein remaining %≤ 100%)	A (0% ≤ substrate protein remaining % ≤ 80%)	B (80%< substrate protein remaining %≤ 100%)
O=C1CCC(N2Cc3c(CN4CCC(c5ccnc(F)c5F)CC4)cccc3C2=S)C(=O)N1 (centres unmarked) [GT-08459, 3-(4-((4-(2,3-difluoropyridin-4-yl)piperidin-1-yl)methyl)-1-thioxoisoindolin-2-yl)piperidine-2,6-dione]						60 to 80%	80 to 100%		B (80%< substrate protein remaining %≤ 100%)	B (80%< substrate protein remaining %≤ 100%)	B (80%< substrate protein remaining %≤ 100%)	B (80%< substrate protein remaining %≤ 100%)	A (0% ≤ substrate protein remaining % ≤ 80%)	B (80%< substrate protein remaining %≤ 100%)
